The target of one assay is human FPR1 (Homo sapiens (Human), UniProt P21462). Put plainly: FPR1 cyclic adenosine monophosphate (cAMP) assay. Type of assay: cell-based. As to conditions: CHO cells overexpressing human FPR1; forskolin 10 μM, IBMX 200 μM; inhibition of cAMP production, HTRF; read-out: hFPR1 cAMP EC50. From the text:
(§1) N-formyl peptide receptors (FPRs) are a family of chemo attractant receptors that facilitate leukocyte response during inflammation. FPRs belong to the seven-transmembrane G protein-coupled receptor superfamily and are linked to inhibitory G-proteins (Gi). Three family members (FPR1, FPR2 and FPR3) have been identified in humans and are predominantly found in myeloid cells with varied distribution and have also been reported in multiple organs and tissues. After agonist binding, the FPRs activate a multitude of physiological pathways, such as intra cellular signaling transduction, Ca^21 mobilization and transcription. The family interacts with a diverse set of ligands that includes proteins, polypeptides and fatty acid metabolites which activate both pro-inflammatory and pro-resolution downstream responses. FPR2 and FPR1 Cyclic Adenosine Monophosphate (cAMP) Assays were used to measure the activity of the compounds in this patent.
(§2) FPR2 and FPR1 Cyclic Adenosine Monophosphate (cAMP) Assays. A mixture of forskolin (5 μM final for FPR2 or 10 μM final for FPR1) and IBMX (200 μM final) were added to 384-well Proxiplates (Perkin-Elmer) pre-dotted with test compounds in DMSO (1% final) at final concentrations in the range of 0.020 nM to 100 μM. Chinese Hamster Ovary cells (CHO) overexpressing human FPR1 or human FPR2 receptors were cultured in F-12 (Ham's) medium supplemented with 10% qualified FBS, 250 μg/ml zeocin and 300 μg/ml hygromycin (Life Technologies). Reactions were initiated by adding 2,000 human FPR2 cells per well or 4,000 human FPR1 cells per well in Dulbecco's PBS (with calcium and magnesium) (Life Technologies) supplemented with 0.1% BSA (Perkin-Elmer). The reaction mixtures were incubated for 30 min at room temperature. The level of intracellular cAMP was determined using the HTRF HiRange cAMP assay reagent kit (Cisbio) according to manufacturer's instruction. Solutions of cryptate conjugated anti-cAMP and d2 flurorophore-labelled cAMP were made in a supplied lysis buffer separately. Upon completion of the reaction, the cells were lysed with equal volume of the d2-cAMP solution and anti-cAMP solution. After a 1-h room temperature incubation, time-resolved fluorescence intensity was measured using the Envision (Perkin-Elmer) at 400 nm excitation and dual emission at 590 nm and 665 nm. A calibration curve was constructed with an external cAMP standard at concentrations ranging from 1 μM to 0.1 μM by plotting the fluorescent intensity ratio from 665 nm emission to the intensity from the 590 nm emission against cAMP concentrations. The potency and activity of a compound to inhibit cAMP production was then determined by fitting to a 4-parametric logistic equation from a plot of cAMP level versus compound concentrations.
A general note: cAMP levels reflect the balance of adenylyl cyclase and phosphodiesterase activity.

The next assay concerns the target human FPR2 (Homo sapiens (Human), UniProt P25090). Put plainly: FPR2 cyclic adenosine monophosphate (cAMP) assay. Type of assay: cell-based. As to conditions: CHO cells overexpressing human FPR2; forskolin 5 μM, IBMX 200 μM; inhibition of cAMP production, HTRF; read-out: hFPR2 cAMP2 EC50.
Text: as §1, §2

Bounds are passed on as bounds.

Sequence of human FPR1 (P21462 whole entry): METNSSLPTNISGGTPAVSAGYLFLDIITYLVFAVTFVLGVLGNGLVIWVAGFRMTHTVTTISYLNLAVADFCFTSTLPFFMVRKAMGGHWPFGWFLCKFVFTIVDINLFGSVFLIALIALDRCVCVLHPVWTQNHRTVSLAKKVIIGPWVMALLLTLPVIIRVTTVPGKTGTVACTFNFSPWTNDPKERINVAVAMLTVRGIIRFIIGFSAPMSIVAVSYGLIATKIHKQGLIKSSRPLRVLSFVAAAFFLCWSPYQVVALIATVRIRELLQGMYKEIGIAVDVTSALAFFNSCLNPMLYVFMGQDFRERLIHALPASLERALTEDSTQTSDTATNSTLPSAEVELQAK
Sequence of human FPR2 (P25090 whole entry): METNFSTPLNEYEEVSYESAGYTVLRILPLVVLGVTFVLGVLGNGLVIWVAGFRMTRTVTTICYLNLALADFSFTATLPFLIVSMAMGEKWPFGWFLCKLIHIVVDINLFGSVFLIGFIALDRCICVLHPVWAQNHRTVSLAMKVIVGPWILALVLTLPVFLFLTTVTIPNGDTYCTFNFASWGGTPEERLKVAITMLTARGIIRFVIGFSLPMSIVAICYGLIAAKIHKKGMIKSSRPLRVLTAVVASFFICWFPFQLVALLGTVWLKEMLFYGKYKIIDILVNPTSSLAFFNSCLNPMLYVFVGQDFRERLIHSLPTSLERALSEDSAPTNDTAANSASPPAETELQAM

As to `COc1cc(F)c([C@H]2[C@H](NC(=O)N[C@H]3CC[C@H](C(F)F)CC3)C(=O)N(c3ncccc3OC)[C@H]2C)c(F)c1` [Example 48], the concentration for a half-maximal effect (EC50) was 600 nM on human FPR1 and 7.4 nM at human FPR2.

As for `COc1ccc([C@H]2C[C@@H]2NC(=O)N[C@@H]2C(=O)N(c3ncccc3C(F)(F)F)C[C@H]2c2c(F)cc(OC)cc2F)cc1` [Example 49], the EC50 came to 2500 nM on human FPR1 and 9.9 nM on human FPR2.

With `COCCn1ccc(OC)c(N2C[C@@H](c3c(F)cc(OC)cc3F)[C@H](NC(=O)NC3CCc4cc(OC)ccc4C3)C2=O)c1=O` (stereo partly shown) [Example 50], the EC50 came out at 1.2 nM at human FPR1 and 12 nM on human FPR2.

As to `COc1cc(F)c([C@H]2[C@H](NC(=O)N[C@H]3CC[C@H](C(F)F)CC3)C(=O)N(c3ncccc3OC(C)C)[C@H]2C)c(F)c1` [Example 51], the 50% effective concentration (EC50) at human FPR1 amounted to 77 nM; on human FPR2 it was 12 nM.

With `CCn1cccc(N2C[C@@H](c3c(F)cc(OC)cc3F)[C@H](NC(=O)NC3CCc4cc(OC)ccc4C3(C)C)C2=O)c1=O` (stereo partly shown) [Example 52], the EC50 amounted to 593 nM at human FPR1 and 13 nM at human FPR2.

Consider `COCCn1cccc(N2C[C@@H](c3c(F)cc(OC)cc3F)[C@H](NC(=O)NC3CCc4cc(OC)ccc4C3)C2=O)c1=O` (stereo partly shown) [Example 53], for which the results for the concentration for a half-maximal effect (EC50) on human FPR1 and on human FPR2 were 24.6 nM and 13 nM, respectively.

Take `COCCn1cccc(N2C[C@@H](c3c(F)cc(OC)cc3F)[C@H](NC(=O)NC3CCc4cc(OC)ccc4C3(C)C)C2=O)c1=O` (stereo partly shown) [Example 54]: the EC50 stood at 8.8 nM at human FPR1 and 19 nM on human FPR2.

With `COCCn1cccc(N2C[C@@H](c3ccc(Cl)cc3)[C@H](NC(=O)NC3CCc4cc(OC)ccc4C3)C2=O)c1=O` (stereo partly shown) [Example 55], the EC50 at human FPR1 amounted to 0.5 nM; on human FPR2, 24 nM.

With `COc1cc(F)c([C@@H]2CN(c3c(OC)ccn(C)c3=O)C(=O)[C@H]2NC(=O)NC2CCc3cc(OC)ccc3C2)c(F)c1` (stereo partly shown) [Example 57], the concentration for a half-maximal effect (EC50) at human FPR1 came out at 1.2 nM; on human FPR2, 26 nM.

`COc1cc(F)c([C@@H]2CN(c3ncccc3C(F)(F)F)C(=O)[C@H]2NC(=O)NC2CCc3cc(OC)ccc3C2(C)C)c(F)c1` (stereo partly shown) [Example 58]: the figures for the concentration giving a half-maximal response (EC50) on human FPR1 and on human FPR2 were 220 nM and 29 nM, respectively.

Consider `COc1cc(F)c([C@H]2[C@H](NC(=O)NC3CCc4cc(OC)ccc4C3(C)C)C(=O)N(c3ncccc3C(F)(F)F)[C@H]2C)c(F)c1` (stereo partly shown) [Example 59], for which the figures for the EC50 on human FPR1 and on human FPR2 were 470 nM and 29 nM, respectively.

On to `CCn1cccc(N2C[C@@H](c3c(F)cc(OC)cc3F)[C@H](NC(=O)NC3CCc4cc(OC)ccc4C3(C)C)C2=O)c1=O` (stereo partly shown) [Example 61], for which the EC50 came out at 17 nM on human FPR1 and 33 nM on human FPR2.

On to `COCCn1cccc(N2C(=O)[C@@H](NC(=O)NC3CCc4cc(OC)ccc4C3(C)C)[C@H](c3c(F)cc(OC)cc3F)[C@@H]2C)c1=O` (stereo partly shown) [Example 62], for which the 50% effective concentration (EC50) on human FPR1 was 23 nM; at human FPR2 it was 36 nM.

As to `COc1cc(F)c([C@@H]2CN(c3ncccc3C(F)(F)F)C(=O)[C@H]2NC(=O)NC2CCc3cc(OC)ccc3C2)c(F)c1` (stereo partly shown) [Example 64], the EC50 at human FPR1 was 54 nM; at human FPR2, 53 nM.

Regarding `COc1cc(F)c([C@@H]2CN(c3cccn(CCO)c3=O)C(=O)[C@H]2NC(=O)N[C@H]2CC[C@H](C(F)F)CC2)c(F)c1` [Example 65], the values for the concentration giving a half-maximal response (EC50) at human FPR1 and at human FPR2 were 5000 nM and 55 nM, respectively.

For the compound `COc1cc(F)c([C@@H]2CN(c3ncccc3C(F)(F)F)C(=O)[C@H]2NC(=O)NC2CCC3(CC2)CC3)c(F)c1` [Example 67], the EC50 on human FPR1 is greater than 10000 nM; on human FPR2, 97 nM.

As to `COc1cc(F)c([C@@H]2CN(c3nccc(NC4CCOCC4)c3C(F)(F)F)C(=O)[C@H]2NC(=O)N[C@H]2CC[C@H](C(F)F)CC2)c(F)c1` [Example 68], the figures for the EC50 on human FPR1 and at human FPR2 were 4800 nM and 27 nM, respectively.

Take `COCCNc1ccnc(N2C[C@@H](c3c(F)cc(OC)cc3F)[C@H](NC(=O)N[C@H]3CC[C@H](C(F)F)CC3)C2=O)c1C(F)(F)F` [Example 69]: the concentration giving a half-maximal response (EC50) at human FPR1 was 1800 nM; at human FPR2, 5.2 nM.

As to `COCCn1cccc(N2C[C@@H](c3c(F)cc(OC)cc3F)[C@H](NC(=O)N[C@H]3CC[C@H](C(F)F)CC3)C2=O)c1=O` [Example 70], the results for the EC50 at human FPR1 and at human FPR2 were 1200 nM and 33 nM, respectively.

On to `COc1cc(F)c([C@H]2[C@H](NC(=O)N[C@H]3CC[C@H](C(F)F)CC3)C(=O)N(c3cccn(CCO)c3=O)[C@H]2C)c(F)c1` [Example 71], for which the concentration for a half-maximal effect (EC50) was determined as 1100 nM at human FPR1 and 54 nM at human FPR2.

As for `CNC(=O)CNc1ccnc(N2C[C@@H](c3c(F)cc(OC)cc3F)[C@H](NC(=O)N[C@H]3CC[C@H](C(F)F)CC3)C2=O)c1C(F)(F)F` [Example 72], the values for the concentration giving a half-maximal response (EC50) at human FPR1 and at human FPR2 were greater than 1000 nM and 25 nM, respectively.

Consider `COc1cc(F)c([C@@H]2CN(c3cccn(CC(O)C(F)(F)F)c3=O)C(=O)[C@H]2NC(=O)NC2CCc3cc(OC)ccc3C2)c(F)c1` (stereo partly shown) [Example 80], for which the EC50 was determined as 1 nM at human FPR1 and 11 nM on human FPR2.

In the case of `COCC(CO)n1cccc(N2C[C@@H](c3c(F)cc(OC)cc3F)[C@H](NC(=O)NC3CCc4cc(OC)ccc4C3)C2=O)c1=O` (stereo partly shown) [Example 81], the concentration for a half-maximal effect (EC50) on human FPR1 was 1.5 nM; on human FPR2, 5.9 nM.

Turning to `COCC(CO)n1cccc(N2C[C@@H](c3c(F)cc(OC)cc3F)[C@H](NC(=O)NC3CCc4cc(OC)ccc4C3)C2=O)c1=O` (stereo partly shown) [Example 82], the concentration for a half-maximal effect (EC50) came out at 0.8 nM at human FPR1 and 9.9 nM at human FPR2.

In the case of `COCCn1nccc(N2C[C@@H](c3c(F)cc(OC)cc3F)[C@H](NC(=O)NC3CCc4cc(OC)ccc4C3)C2=O)c1=O` (stereo partly shown) [Example 85], the figures for the EC50 at human FPR1 and on human FPR2 were 7.6 nM and 4.4 nM, respectively.

`COc1cc(F)c([C@@H]2CN(c3nccc(N4CCN(S(C)(=O)=O)CC4)c3C(F)(F)F)C(=O)[C@H]2NC(=O)N[C@H]2CC[C@H](C(F)F)CC2)c(F)c1` [Example 88]: the EC50 was greater than 10000 nM at human FPR1 and 9.1 nM on human FPR2.

For the compound `COc1cc(F)c([C@@H]2CN(c3nccc(NCC4CCCO4)c3C(F)(F)F)C(=O)[C@H]2NC(=O)N[C@H]2CC[C@H](C(F)F)CC2)c(F)c1` (stereo partly shown) [Example 93], the EC50 on human FPR1 was determined as 1700 nM; at human FPR2 it was 14 nM.

Consider `COc1cc(F)c([C@@H]2CN(c3nccc(NCCS(C)(=O)=O)c3C(F)(F)F)C(=O)[C@H]2NC(=O)N[C@H]2CC[C@H](C(F)F)CC2)c(F)c1` [Example 98], for which the EC50 is greater than 5000 nM at human FPR1 and 7.2 nM at human FPR2.

In the case of `COc1cc(F)c([C@@H]2CN(c3nccc(N4CC(C)(O)C4)c3C(F)(F)F)C(=O)[C@H]2NC(=O)N[C@H]2CC[C@H](C(F)F)CC2)c(F)c1` [Example 101], the EC50 is greater than 10000 nM at human FPR1 and 1.6 nM on human FPR2.

Take `COc1cc(F)c([C@@H]2CN(c3nccc(NCC(C)(C)O)c3C(F)(F)F)C(=O)[C@H]2NC(=O)N[C@H]2CC[C@H](C(F)F)CC2)c(F)c1` [Example 104]: the concentration for a half-maximal effect (EC50) on human FPR1 came to 5000 nM; on human FPR2, 39 nM.

In the case of `COCCn1cccc(N2C(=O)[C@@H](NC(=O)N[C@H]3CC[C@H](C(F)F)CC3)[C@H](c3c(F)cc(OC)cc3F)[C@@H]2C)c1=O` [Example 105], the 50% effective concentration (EC50) at human FPR1 worked out at 1200 nM; at human FPR2, 17 nM.

In the case of `COc1cc(F)c([C@@H]2CN(c3nccc(N4CCOCC4)c3C(F)(F)F)C(=O)[C@H]2NC(=O)N[C@H]2CC[C@H](C(F)F)CC2)c(F)c1` [Example 108], the figures for the concentration for a half-maximal effect (EC50) on human FPR1 and on human FPR2 were 3500 nM and 670 nM, respectively.

Usually EC50 stands for the concentration needed to bring the measured effect to its halfway point.

The values are drawn from patent US20230303513A1, “OXOPYRROLIDINE UREA FPR2 AGONISTS” (BRISTOL-MYERS SQUIBB COMPANY, priority 2020, published 2023).
